Values joined by “and” are separate entries in the source; they are usually repeats but may differ in a detail not shown here. Equal values may be shown once.

The values below come from patent US6903132B2, “Non-peptide GnRH agents, pharmaceutical compositions and methods for their use” (Agouron Pharmaceuticals, Inc., priority 2002, dated 2005).

Series [1] in a line: In vitro metabolism: disappearance of parent compound in liver microsomes (female rat). The note with it: 5 uM compound, 0.5 mg/ml microsomal protein, 2 mM NADPH, 30 minutes at 37° C. In kind it is in vitro ADME. On the procedure: (§1) Human, rat, dog, and monkey liver microsomes are isolated by differential centrifugation. Specimens of human liver were obtained from the International Institute for the Advancement of Medicine (Scranton, Pa.). The disappearance of the parent compound is studied in a mixture containing 5 uM compound, 0.5 mg/ml microsomal protein, and 2 mM NADPH in 50 mM K Phosphate buffer, pH 7.4. Samples are incubated for 30 minutes at 37° C. The reaction is terminated by the addition of acetonitrile and compounds analyzed by LC-MS as described above.

Series [2] in a line: In vitro metabolism: disappearance of parent compound in liver microsomes (male rat). In kind it is in vitro ADME. The note with it: 5 uM compound, 0.5 mg/ml microsomal protein, 2 mM NADPH, 30 minutes at 37° C. On the procedure: as §1
A general note: Liver microsomes are a subcellular fraction often used to study metabolism.

Series [3] is described as follows: Pharmacokinetics in female rats. The format is in vivo, rat. The note with it: for FR Fp.o.: AUCp.o./AUCi.v.; for Tmax: rat, plasma, po, dose and vehicle per footnote, read-out: FR Tmax hr. How it is done:
Rats (male or female, 200-225 g) are prepared with indwelling jugular vein cannula as described by Harms et al., Applied Physiol. 36:391-398 (1974), and allowed to recover overnight with free access to the standard vivarium chow and water. […] […] The blood samples are withdrawn at specific times, plasma is immediately separated and compound extracted with ethyl acetate. The samples are analyzed by LC-MS using 30-90% gradient of ACN in 50 mM ammonium acetate.
The pharmacokinetic parameters are calculated using WinNonlin software (Scientific Consulting Inc.). The bioavailability is calculated as AUCp.o./AUCi.v., where AUCp.o. and AUCi.v. are areas under the plasma concentration-time curve after oral and i.v. administration, respectively.

A short description of series [4]: In vitro metabolism: disappearance of parent compound in liver microsomes. The format is in vitro ADME. The note with it: human liver microsomes; 5 uM compound, 0.5 mg/ml microsomal protein, 2 mM NADPH, 30 minutes at 37° C. On the procedure: as §1
The target of a further series is T1, human GnRH receptors (Homo sapiens, UniProt P30968).
T1 construct: expressed in transfected cells; host or cells: HEK 293
T1 sequence (P30968 1-328): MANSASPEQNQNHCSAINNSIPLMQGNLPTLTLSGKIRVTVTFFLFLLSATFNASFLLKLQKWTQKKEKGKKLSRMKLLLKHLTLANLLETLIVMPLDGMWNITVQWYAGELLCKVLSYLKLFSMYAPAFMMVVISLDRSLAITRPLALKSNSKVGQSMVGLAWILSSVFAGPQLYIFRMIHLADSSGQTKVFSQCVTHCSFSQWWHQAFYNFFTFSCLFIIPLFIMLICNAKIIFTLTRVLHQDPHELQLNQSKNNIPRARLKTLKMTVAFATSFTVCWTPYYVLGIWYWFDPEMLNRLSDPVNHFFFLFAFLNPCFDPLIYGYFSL
As to the kind of experiment: Radioligand binding assay: inhibition of binding of 125I-GnRH-A to GnRH receptors (membranes). The note with it: Human GnRH receptor; competition with 125I-GnRH-A; Ki calculated from IC50 (Cheng et al.). In outline: (§2)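 Membranes from HEK 293 expressing mouse or human receptor, or rat pituitaries, incubated 1 h at RT with ~0.04–0.06 nM ¹²⁵I-[des-Gly¹⁰,D-Ala⁶]GnRH ethylamide and competitor (0.1–10,000 nM) in HEPES pH 7.4 with MgCl2, EDTA, BSA. Filtration onto PEI-soaked GF/C filters, scintillation counting; Ki from IC50 by Cheng–Prusoff.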

Another series deals with T2, mouse GnRH receptors (Mus musculus, UniProt Q01776).
T2 construct: expressed in transfected cells; host or cells: HEK 293
T2 sequence (Q01776 1-327): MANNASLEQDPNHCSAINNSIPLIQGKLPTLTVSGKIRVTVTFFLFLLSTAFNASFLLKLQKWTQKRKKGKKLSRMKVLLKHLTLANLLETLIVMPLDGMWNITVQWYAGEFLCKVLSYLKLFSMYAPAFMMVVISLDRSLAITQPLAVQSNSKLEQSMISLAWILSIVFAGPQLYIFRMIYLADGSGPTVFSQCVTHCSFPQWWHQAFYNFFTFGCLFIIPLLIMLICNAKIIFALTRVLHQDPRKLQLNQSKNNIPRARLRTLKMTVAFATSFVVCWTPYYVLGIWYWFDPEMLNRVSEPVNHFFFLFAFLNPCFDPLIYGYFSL
Described as above. The note with it: Mouse GnRH receptor; competition with 125I-GnRH-A; Ki calculated from IC50 (Cheng et al.). In outline: as §2

Another series deals with T3, rat GnRH receptor (Rattus norvegicus, UniProt P30969).
T3 construct: rat pituitaries (Pel Freez Biologicals, Rogers, Ark.) are homogenized in buffer A; tissue Pel Freez Biologicals; host or cells: rat pituitaries
T3 sequence (P30969 1-327): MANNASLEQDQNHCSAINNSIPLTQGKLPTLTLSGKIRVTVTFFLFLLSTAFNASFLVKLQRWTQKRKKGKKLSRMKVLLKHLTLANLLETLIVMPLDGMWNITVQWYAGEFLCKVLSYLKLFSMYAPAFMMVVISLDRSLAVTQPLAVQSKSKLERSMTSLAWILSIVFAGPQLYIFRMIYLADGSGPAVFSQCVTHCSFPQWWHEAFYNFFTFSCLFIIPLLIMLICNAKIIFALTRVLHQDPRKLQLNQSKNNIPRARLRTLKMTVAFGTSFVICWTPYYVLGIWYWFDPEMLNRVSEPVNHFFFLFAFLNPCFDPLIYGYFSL
The series is described as above. The note with it: competition with 125I-GnRH-A, Ki calculated from IC50 (Cheng et al.). In a few lines: as §2

The mark [5] stands for this setting: 10 mg/kg as 5 mg/ml solution in 10% cremophor 90% saline.

As a reminder, the Tmax is the time from dosing to the highest level. What is called Ki is a dissociation constant, usually derived from enzyme kinetics or from competition with a known ligand. For the molecule `Cc1cc2c(cc1Oc1ccc(C(=O)NNc3cc(C)c4c(C)nn(C)c4n3)o1)C(C)(C)CCC2(C)C` [Example F2], the “Fem. t % rem. 30′” value in series [1] was determined as 22%. Moreover, the “Male t % p. 30′” value in series [2] came out at 93%. In addition, the “FR Fp.o.” value in series [3] (setting [5]) turned out to be 8%^3. In addition, the Tmax in series [3] is 30 min. Further, in series [4], the “Huma % p. 30′” value was found to be 65%. Besides, the Ki is 0.0033 µM at human GnRH receptors, 0.0082 µM at mouse GnRH receptors and 0.0085 µM at rat GnRH receptor.

For the molecule `Cc1cc2c(cc1Cc1ccc(C(=O)NNc3ccc4ccccc4n3)o1)C(C)(C)CCC2(C)C` [Example C5, 5-[(3,5,5,8,8-Pentamethyl-5,6,7,8-tetrahydro-2-naphthalenyl)methyl]-N′-(2-quinolinyl]-2-furohydrazide], the “Huma % p. 30′” value in series [4] worked out at 52%. Besides, the Ki on human GnRH receptors is 0.025 µM; on mouse GnRH receptors it was 0.01 µM; on rat GnRH receptor, 0.012 µM.

Take `Cc1cc(Cl)c(C(C)C)c(Oc2ccc(C(=O)NNc3cc(C)c4c(C)nn(C)c4n3)o2)c1` [Example I3, 5-(3-Chloro-2-isopropyl-5-methylphenoxy)-N′-(1,3,4-trimethyl-1H-pyrazolo[3,40b]pyridin-6-yl)-2-furohydrazide]: the “Huma % p. 30′” value in series [4] was found to be 43%. Besides, the inhibition constant Ki on human GnRH receptors was 5.77 µM.

Regarding `Cc1cc(C)c(Cc2ccc(C(=O)NNc3cc(C)c4c(C)nn(C)c4n3)o2)c(C)c1Br` [Example J2], the “FR Fp.o.” value in series [3] (setting [5]) is 6%^3. In addition, the Tmax in series [3] turned out to be 30 min. At human GnRH receptors, the inhibition constant (Ki) is 0.55 µM.

For the molecule `Cc1cc2c(cc1Cc1ccc(C(=O)NNc3nc(N)nc(C4CC4)n3)o1)C(C)(C)CCC2(C)C` [Example C6, N′-(4-amino-6-cyclopropyl-1,3,5-triazin-2-yl)-5-[(3,5,5,8,8-pentamethyl-5,6,7,8-tetrahydro-2-naphthalenyl)methyl]-2-furohydrazide], the “Male t % p. 30′” value in series [2] is reported as 95%. Besides, the “FR Fp.o.” value in series [3] (10 mg/kg as 5 mg/ml solution in 10% DMSO 105 cremophor 80% saline) is listed as less than 1%^2. Further, in series [4], the “Huma % p. 30′” value is recorded as 75%. Moreover, the inhibition constant (Ki) was 0.042 µM on human GnRH receptors, 0.018 µM on mouse GnRH receptors and 0.006 µM on rat GnRH receptor.

In the case of “5-{[-3,5,5,6,8,8-Hexamethyl-5,6,7,8-tetrahydro-2-naphthalenyl]oxy}-N′-(1,3-dimethyl-1H-pyrazolo[3,4-b]pyridin-6-yl)-2-furo hydrazide [Example F1]”, the “Fem. t % rem. 30′” value in series [1] was determined as 24%. The “FR Fp.o.” value in series [3] (setting [5]) is recorded as 5%^3. Besides, in series [4], the “Huma % p. 30′” value is given as 41%. Also, the inhibition constant Ki on human GnRH receptors was 0.002 µM; on mouse GnRH receptors it was 0.0035 µM; at rat GnRH receptor, 0.0052 µM.

As to `COc1cc(C)c(Cl)c(C)c1Cc1ccc(C(=O)NNc2cc(C)c3c(C)nn(C)c3n2)o1` [Example J1], the “Male t % p. 30′” value in series [2] is 99% and 95%. Also, the time to peak (Tmax) in series [3] was determined as 60 min. Further, the Ki on human GnRH receptors is 0.45 µM.

Consider `CC(=O)c1c(NNC(=O)c2ccc(Cc3cc4c(cc3C)C(C)(C)OC4(C)C)o2)nc2c(c(C)nn2C)c1C` [Example E2, N-(5-acetyl-1,3,4-trimethyl-1H-pyrazolo[3,4-b]pyridin-6yl)-5-[(1,1,3,3,6-pentamethyl-1,3-dihydro-2-benzofuran-5-yl)methyl]-2-furohydrazide], for which the “Huma % p. 30′” value in series [4] is reported as 30%. The inhibition constant Ki at human GnRH receptors is 0.3 µM.

Take `Cc1cc2c(cc1Cc1ccc(C(=O)NNc3ccc(C(F)(F)F)cn3)o1)C(C)(C)CCC2(C)C` [Example C9, 5-[(3,5,5,8,8-Pentamethyl-5,6,7,8-tetrahydro-2-naphthalenyl)methyl]-N′-[5-(trifluoromethyl)-2-pyridinyl]-2-furohydrazide]: the “Fem. t % rem. 30′” value in series [1] came out at 14%. The “Male t % p. 30′” value in series [2] was 94%. Also, the “Huma % p. 30′” value in series [4] is reported as 61%. The Ki was 0.061 µM at human GnRH receptors, 0.03 µM on mouse GnRH receptors and 0.047 µM on rat GnRH receptor.

For `Cc1cc2c(cc1Oc1ccc(C(=O)NNc3cc(C)c4c(C)nn(C)c4n3)o1)C(C)(C)C(C)C2(C)C` (stereo not drawn) [Example M4, 5-(1,1,2,3,3,6-Hexamethyl-indan-5-yloxy)-furan-2-carboxylic acid N′-(1,3,4-trimethyl-1H-pyrazolo[3,4-b]pyridin-6-yl)-hydrazide], the Ki on human GnRH receptors is 0.0018 µM; at mouse GnRH receptors, 0.0037 µM; on rat GnRH receptor, 0.0039 µM.

On to `COc1cc2c(cc1Oc1ccc(C(=O)NNc3cc(C)c4c(C)nn(C)c4n3)o1)C(C)(C)CC2=O` [Example I5, 5-[(6-Methoxy-3,3-dimethyl-1-oxo-2,3-dihydro-1H-inden-5-yl)oxy]-N′-(1,3,4-trimethyl-1H-pyrazolo[3,4-b]pyridin-6-yl)-2-furohydrazide], for which the “Huma % p. 30′” value in series [4] is recorded as 58%. Besides, at human GnRH receptors, the inhibitory constant (Ki) is 1.21 µM.

For the molecule `Cc1sc2c(c1Cc1ccc(C(=O)NNc3cc(C)c4c(C)nn(C)c4n3)o1)C(C)(C)CCC2(C)C` [Example J23], the inhibitory constant (Ki) on human GnRH receptors was 0.14 µM; on mouse GnRH receptors it was 0.28 µM; on rat GnRH receptor, 0.66 µM.

On to `Cc1cc2c(c(O)c1Oc1ccc(C(=O)NNc3cc(C)c4c(C)nn(C)c4n3)o1)C(C)(C)CCC2(C)C` [Example I29, 5-(1-Hydroxy-3,5,5,8,8-pentamethyl-5,6,7,8-tetrahydro-naphthalen-2-yloxy)-furan-2-carboxylic acid N′-(1,3,4-trimethyl-1H-pyrazolo[3,4-b]pyridin-6-yl)-hydrazide], for which the inhibitory constant (Ki) on human GnRH receptors is 0.049 µM; at mouse GnRH receptors it was 0.058 µM; at rat GnRH receptor it was 0.064 µM.

For `Cc1cc2c(c(C)c1Oc1ccc(C(=O)NNc3cc(C)c4c(C)nn(C)c4n3)o1)C(C)(C)CCC2(C)C` [Example I9, 5-(1,3,5,5,8,8-Hexamethyl-5,6,7,8-tetrahydro-naphthalen-2-yloxy)-furan-2-carboxylic acid N′-(1,3,4-trimethyl-1H-pyrazolo[3,4-b]pyridin-6-yl)-hydrazide], the Ki is 0.0012 µM on human GnRH receptors, 0.0021 µM at mouse GnRH receptors and 0.0038 µM on rat GnRH receptor.

In the case of `Cc1cc(Cl)c(C(C)C)cc1Oc1ccc(C(=O)NNc2cc(C)c3c(C)nn(C)c3n2)o1` [Example I23, 5-(4-Chloro-5-isopropyl-2-methyl-phenoxy)-furan-2-carboxylic acid N′-(1,3,4-trimethyl-1H-pyrazolo[3,4-b]pyridin-6-yl)-hydrazide], the Ki is 0.03 µM on human GnRH receptors, 0.022 µM on mouse GnRH receptors and 0.37 µM on rat GnRH receptor.

For the molecule `Cc1cc2c(cc1Cc1ccc(C(=O)NNc3ncccc3C(F)(F)F)o1)C(C)(C)CCC2(C)C` [Example C11, 5-[(3,5,5,8,8-Pentamethyl-5,6,7,8-tetrahydro-2-naphthalenyl)methyl]-N′-[3-(trifluoromethyl)-2-pyridinyl]-2-furohydrazide], the Ki on human GnRH receptors is 0.063 µM; at mouse GnRH receptors it was 0.067 µM; at rat GnRH receptor, 0.084 µM.
